Laboratory results published in patent US4737583A, “Anthracyclin derivatives” (priority 1983, dated 1988).
Converted amounts (≈) assume the structure as drawn. Like-named read-outs stand apart in the source and are kept apart here.

Legend:
[1] = solubility (description of the substance)
[2] = test system: L1210 leukemia cells; test: cell proliferation test, incorporation of C14-thymidine into DNA of L1210 leukemia cells; assay type: cell-based; details: Mus musculus
Experimental: The cytorhodins according to the invention are distinguished by a powerful cytostatic activity and gave the following action on L1210 leukemia cells in the cell proliferation test:
The inhibiting action is determined as follows (cell proliferation test):
L1210 cells in the exponential growth phase (5×10^3 /ml in RPMI 1640) are incubated with various concentrations of the test substance in a microtiter plate for 72 hours (37° C., 5% of CO2, 95% relative atmospheric humidity). Controls comprise cells which are incubated only with fresh medium. All the determinations are carried out as quadruplicate determinations. After 65 hours, 50 μl of C14-thymidine (1.5 μC/ml) are added in order to radioactively label the DNA of the cells. After incubation for 7 hours, the cells are filtered off with suction and the DNA is precipitated with 5% strength trichloroacetic acid and washed successively with water and methanol. After drying at 50° C., the radioactivity incorporated into the DNA is determined, after addition of 5 ml of scintillation liquid. The results are given as the relationships of the scintillation index after incubation with test substance in percent of the untreated control. […]

| Compound | solubility in methanol, ethyl acetate, chloroform and toluene [1] | solubility in water and hexane [1] | IC50 ([2]; L1210 leukemia cells, 72 hours, 37° C., incorporation of radioactive thymidine reduced by 50% compared with the control, read-out: IC50) | IC50 ([2]; L1210, 72 h) |
| --- | --- | --- | --- | --- |
| CCC1(O)CC(OC2CC(N(C)C)C(OC3CC4OC5CC(=O)C(C)OC5OC4C(C)O3)C(C)O2)c2c(O)c3c(c(O)c2C1OC1CC(N(C)C)C(O)C(C)O1)C(=O)c1cccc(O)c1C3=O (stereo not drawn) [Cytorhodin S] | readily soluble | insoluble | 0.3 ng/mL (≈ 0.319 nM) |  |
| CCC1(O)CC(OC2CC(N(C)C)C(O)C(C)O2)c2c(O)c3c(c(O)c2C1OC1CC(N(C)C)C(OC2CC4OC5CC(=O)C(C)OC5OC4C(C)O2)C(C)O1)C(=O)c1cccc(O)c1C3=O (stereo not drawn) [Cytorhodin T] | readily soluble | insoluble |  | 2 ng/mL (≈ 2.13 nM) |
